Measurements from patent US7449478B2, “Indole compounds” (National Health Research Institutes, priority 2003, dated 2008).

Tested on: PPAR
Test: PPAR agonist activity / binding to PPAR, tetraethylthiuram disulfide alone or combined
Details: tetraethylthiuram disulfide alone

PPAR agonist activity: poor PPAR agonist
Structure (SMILES): CCN(CC)C(=S)SSC(=S)N(CC)CC [tetraethylthiuram disulfide]
